Assay results reported in PMC6134108, “Nystatin-like Pseudonocardia polyene B1, a novel disaccharide-containing antifungal heptaene antibiotic” (Scientific Reports, 2018).
Converted amounts (≈) assume the structure as drawn. Read-outs that look alike come from different tables or passages of the source.

Tests used:
[1] = test system: ergosterol-containing membranes; assay: Preliminary SPR experiments; type: binding; conditions: ergosterol-containing membranes, unpublished data
horse blood cells = type: cell-based; conditions: 90% hemolysis against horse blood cells; ± percentage standard deviation
Description: (§1) For the minimum inhibitory concentration (MIC) assay, strains for testing were grown on YPD agar for 24 hours, and subcultured to YPD broth medium. Whole strains were incubated for 18 hours at 35 °C by shaking incubator. Grown organisms were diluted with fresh RPMI 1640 medium to appropriate concentration, 5 × 10^4 CFU/ml. Cultures were inoculated to 96-well plates containing antifungal medium. All compounds were dissolved using Dimethyl Sulfoxide (DMSO) and diluted broth media. Fungal diluted solution and antifungal medium were mixed at 1:1 ratio so total 200 ul mixed medium was made. Whole experiment plates were incubated for 24 hours at 37 °C. […] The MICs were calculated in duplicate using the Clinical and Laboratory Standards Institute M27-A3 microbroth methodology. Hemolysis experiments and the 3-(4,5-dimethylthiazol-2-yl)-5-(3-carboxymethoxyphenyl)-2-(4-sulfophenyl)-2H-tetrazolium (MTS) cell proliferation colorimetric assay were performed following known procedures[12],[27],[29].

[2] = 7-day repeated intravenous dose toxicity; type: in vivo, mice; conditions: both sexes, ICR, mouse, in vivo; mice, 7-day repeated intravenous doses; read-out: MTD, maximal tolerated dose
Description: (§2) All in vivo mouse toxicity studies were conducted according to Testing Guidelines for Safety Evaluation of Drugs[32] and the Organisation for Economic Co-operation and Development (OECD) Guideline[33]. Male and female ICR mice were used 7 weeks old for the toxicity test. […]

ICR mice [3] = assay: 7-day repeated intravenous dose toxicity; type: in vivo
Description: as §2

in vivo [4] = conditions: mouse, 1 mg/kg
Source text: Supplement 41598_2018_31801_MOESM1_ESM.docx, table 4: Table S4.

in vivo [5] = conditions: male, SD, rat, iv, 0.5 mg/kg
C. albicans SC5314 = assay: MIC assay (CLSI M27-A3 microbroth); type: cell-based; conditions: Candida albicans; C. albicans SC5314; no visible growth; read-out: Antifungal activity (MIC)
Description: as §1

[6] = test system: Cryptococcus humicola ATCC9949; assay: MIC assay (CLSI M27-A3 microbroth); type: cell-based; conditions: Vanrija humicola; Cryptococcus humicola ATCC9949; read-out: Antifungal activity (MIC)
Description: as §1

C. albicans SL28 = assay: MIC assay (CLSI M27-A3 microbroth); type: cell-based; conditions: Candida albicans; C. albicans SL28; no visible growth; read-out: Antifungal activity (MIC)
Description: as §1

[7] = test system: Candida albicans KCTC7965; assay: MIC assay (CLSI M27-A3 microbroth); type: cell-based; conditions: Candida albicans KCTC7965; no visible growth; read-out: Antifungal activity (MIC)
Description: as §1

[8] = test system: Saccharomyces cerevisiae ATCC9035; assay: MIC assay (CLSI M27-A3 microbroth); type: cell-based; conditions: Saccharomyces cerevisiae ATCC9035; read-out: Antifungal activity (MIC)
Description: as §1

C. albicans SL38 = assay: MIC assay (CLSI M27-A3 microbroth); type: cell-based; conditions: Candida albicans; C. albicans SL38; no visible growth; read-out: Antifungal activity (MIC)
Description: as §1

[9] = 1 mg/kg dose
[10] = Single intravenous dose acute toxicity; type: in vivo, mice; conditions: ICR, mouse, in vivo, single intravenous administration
Description: (§3) All in vivo mouse toxicity studies were conducted according to Testing Guidelines for Safety Evaluation of Drugs[32] and the Organisation for Economic Co-operation and Development (OECD) Guideline[33]. Male and female ICR mice were used 7 weeks old for the toxicity test. […] The single doses were 1, 2.5, and 5 mg per kg body weight.

ICR mice [11] = assay: Single intravenous dose acute toxicity; type: in vivo
Description: as §3

## C[C@@H]1[C@H](O)[C@@H](C)/C=C/C=C/C=C/C=C/C=C/C=C/C=C/[C@H](O[C@@H]2O[C@H](C)[C@@H](O)[C@H](N)[C@@H]2O)C[C@@H]2O[C@](O)(C[C@@H](O)C[C@@H](O)[C@H](O)CC[C@@H](O)C[C@@H](O)CC(=O)O[C@H]1C)C[C@H](O)[C@H]2C(=O)O [Amphotericin B, amphotericin B]
[1]
  affinity compared with NPP B1: higher affinity
Horse blood cells
  Hemolytic activity (MHC, minimum hemolytic concentration): 4.65 ± 0.17 µg/mL
[2]
  MTD at 7 days: 1.5 mg/kg
ICR mice [3]; female, repeated iv 0.5mg/kg, day 0
  Deaths on day after start of treatment: 0
ICR mice [3]; female, repeated iv 0.5mg/kg, day 1
  Deaths on day after start of treatment: 0
ICR mice [3]; female, repeated iv 0.5mg/kg, day 2
  Deaths on day after start of treatment: 0
ICR mice [3]; female, repeated iv 0.5mg/kg, day 3
  Deaths on day after start of treatment: 0
ICR mice [3]; female, repeated iv 0.5mg/kg, day 4
  Deaths on day after start of treatment: 0
ICR mice [3]; female, repeated iv 0.5mg/kg, day 5
  Deaths on day after start of treatment: 0
ICR mice [3]; female, repeated iv 0.5mg/kg, day 6
  Deaths on day after start of treatment: 0
ICR mice [3]; female, repeated iv 0.5mg/kg, day 7
  Deaths on day after start of treatment: 0
ICR mice [3]; female, repeated iv 1.5mg/kg, day 0
  Deaths on day after start of treatment: 0
ICR mice [3]; female, repeated iv 1.5mg/kg, day 1
  Deaths on day after start of treatment: 0
ICR mice [3]; female, repeated iv 1.5mg/kg, day 2
  Deaths on day after start of treatment: 0
ICR mice [3]; female, repeated iv 1.5mg/kg, day 3
  Deaths on day after start of treatment: 0
ICR mice [3]; female, repeated iv 1.5mg/kg, day 4
  Deaths on day after start of treatment: 0
ICR mice [3]; female, repeated iv 1.5mg/kg, day 5
  Deaths on day after start of treatment: 0
ICR mice [3]; female, repeated iv 1.5mg/kg, day 6
  Deaths on day after start of treatment: 0
ICR mice [3]; female, repeated iv 1.5mg/kg, day 7
  Deaths on day after start of treatment: 0
ICR mice [3]; male, repeated iv 0.5mg/kg, day 0
  Deaths on day after start of treatment: 0
ICR mice [3]; male, repeated iv 0.5mg/kg, day 1
  Deaths on day after start of treatment: 0
ICR mice [3]; male, repeated iv 0.5mg/kg, day 2
  Deaths on day after start of treatment: 0
ICR mice [3]; male, repeated iv 0.5mg/kg, day 3
  Deaths on day after start of treatment: 0
ICR mice [3]; male, repeated iv 0.5mg/kg, day 4
  Deaths on day after start of treatment: 0
ICR mice [3]; male, repeated iv 0.5mg/kg, day 5
  Deaths on day after start of treatment: 0
ICR mice [3]; male, repeated iv 0.5mg/kg, day 6
  Deaths on day after start of treatment: 0
ICR mice [3]; male, repeated iv 1.5mg/kg, day 0
  Deaths on day after start of treatment: 0
ICR mice [3]; male, repeated iv 1.5mg/kg, day 1
  Deaths on day after start of treatment: 0
ICR mice [3]; male, repeated iv 1.5mg/kg, day 2
  Deaths on day after start of treatment: 0
ICR mice [3]; male, repeated iv 1.5mg/kg, day 3
  Deaths on day after start of treatment: 0
ICR mice [3]; male, repeated iv 1.5mg/kg, day 4
  Deaths on day after start of treatment: 0
ICR mice [3]; male, repeated iv 1.5mg/kg, day 5
  Deaths on day after start of treatment: 0
ICR mice [3]; male, repeated iv 1.5mg/kg, day 6
  Deaths on day after start of treatment: 1
In vivo [4]
  AUC(0-inf): 29300 ng·h/mL
  AUC(0-t): 22200 ng·h/mL
  MRT inf: 5.5 h
  Vd: 0.2 L/kg
  clearance: 0.5 mL/min/kg
  half-life: 3.4 h
In vivo [5]; in vivo
  half-life: 8.3 h
In vivo [5]; plasma
  AUC(0-inf): 1680 ng·h/mL
  AUC(0-t): 415 ng·h/mL
  MRT inf: 11.6 h
  Vd: 3.5 L/kg
  clearance: 5 mL/min/kg
C. albicans SC5314
  MIC: 1 µg/mL (≈ 1.08 µM)
[6]
  MIC: 0.5 µg/mL (≈ 0.541 µM)
C. albicans SL28
  MIC: 1 µg/mL (≈ 1.08 µM)
[7]
  MIC: 1 µg/mL (≈ 1.08 µM)
[8]
  MIC: 1 µg/mL (≈ 1.08 µM)
C. albicans SL38
  MIC: 1 µg/mL (≈ 1.08 µM)
[9]
  lethality in rats: killed all the tested rats
[10]; female mice, read-out: median lethal dose (LD50)
  LD50 at 7 days: 1.6 mg/kg
[10]; male mice, read-out: median lethal dose (LD50)
  LD50 at 7 days: 2.95 mg/kg
[10]; both sexes, mice, read-out: LD50, median lethal dose (dose causing 50% mortality)
  LD50 at 7 days: 2.3 mg/kg
ICR mice [11]; female, single iv 1mg/kg, day 0
  Deaths on day after start of treatment: 0
ICR mice [11]; female, single iv 1mg/kg, day 1
  Deaths on day after start of treatment: 0
ICR mice [11]; female, single iv 1mg/kg, day 2
  Deaths on day after start of treatment: 1
ICR mice [11]; female, single iv 1mg/kg, day 3
  Deaths on day after start of treatment: 0
ICR mice [11]; female, single iv 1mg/kg, day 4
  Deaths on day after start of treatment: 0
ICR mice [11]; female, single iv 1mg/kg, day 5
  Deaths on day after start of treatment: 0
ICR mice [11]; female, single iv 1mg/kg, day 6
  Deaths on day after start of treatment: 0
ICR mice [11]; female, single iv 1mg/kg, day 7
  Deaths on day after start of treatment: 0
ICR mice [11]; female, single iv 2.5mg/kg, day 0
  Deaths on day after start of treatment: 0
ICR mice [11]; female, single iv 2.5mg/kg, day 1
  Deaths on day after start of treatment: 1
ICR mice [11]; female, single iv 2.5mg/kg, day 2
  Deaths on day after start of treatment: 3
ICR mice [11]; female, single iv 2.5mg/kg, day 3
  Deaths on day after start of treatment: 0
ICR mice [11]; female, single iv 2.5mg/kg, day 4
  Deaths on day after start of treatment: 0
ICR mice [11]; female, single iv 2.5mg/kg, day 5
  Deaths on day after start of treatment: 0
ICR mice [11]; female, single iv 2.5mg/kg, day 6
  Deaths on day after start of treatment: 1
ICR mice [11]; female, single iv 2.5mg/kg, day 7
  Deaths on day after start of treatment: 0
ICR mice [11]; female, single iv 5mg/kg, day 0
  Deaths on day after start of treatment: 4
ICR mice [11]; female, single iv 5mg/kg, day 1
  Deaths on day after start of treatment: 0
ICR mice [11]; female, single iv 5mg/kg, day 2
  Deaths on day after start of treatment: 1
ICR mice [11]; female, single iv 5mg/kg, day 3
  Deaths on day after start of treatment: 0
ICR mice [11]; female, single iv 5mg/kg, day 4
  Deaths on day after start of treatment: 0
ICR mice [11]; female, single iv 5mg/kg, day 5
  Deaths on day after start of treatment: 0
ICR mice [11]; female, single iv 5mg/kg, day 6
  Deaths on day after start of treatment: 0
ICR mice [11]; female, single iv 5mg/kg, day 7
  Deaths on day after start of treatment: 0
ICR mice [11]; male, single iv 1mg/kg, day 0
  Deaths on day after start of treatment: 0
ICR mice [11]; male, single iv 1mg/kg, day 1
  Deaths on day after start of treatment: 0
ICR mice [11]; male, single iv 1mg/kg, day 2
  Deaths on day after start of treatment: 0
ICR mice [11]; male, single iv 1mg/kg, day 3
  Deaths on day after start of treatment: 0
ICR mice [11]; male, single iv 1mg/kg, day 4
  Deaths on day after start of treatment: 0
ICR mice [11]; male, single iv 1mg/kg, day 5
  Deaths on day after start of treatment: 0
ICR mice [11]; male, single iv 1mg/kg, day 6
  Deaths on day after start of treatment: 0
ICR mice [11]; male, single iv 1mg/kg, day 7
  Deaths on day after start of treatment: 0
ICR mice [11]; male, single iv 2.5mg/kg, day 0
  Deaths on day after start of treatment: 0
ICR mice [11]; male, single iv 2.5mg/kg, day 1
  Deaths on day after start of treatment: 0
ICR mice [11]; male, single iv 2.5mg/kg, day 2
  Deaths on day after start of treatment: 2
ICR mice [11]; male, single iv 2.5mg/kg, day 3
  Deaths on day after start of treatment: 0
ICR mice [11]; male, single iv 2.5mg/kg, day 4
  Deaths on day after start of treatment: 0
ICR mice [11]; male, single iv 2.5mg/kg, day 5
  Deaths on day after start of treatment: 0
ICR mice [11]; male, single iv 2.5mg/kg, day 6
  Deaths on day after start of treatment: 0
ICR mice [11]; male, single iv 2.5mg/kg, day 7
  Deaths on day after start of treatment: 0
ICR mice [11]; male, single iv 5mg/kg, day 0
  Deaths on day after start of treatment: 5
ICR mice [11]; male, single iv 5mg/kg, day 1
  Deaths on day after start of treatment: 0
ICR mice [11]; male, single iv 5mg/kg, day 2
  Deaths on day after start of treatment: 0
ICR mice [11]; male, single iv 5mg/kg, day 3
  Deaths on day after start of treatment: 0
ICR mice [11]; male, single iv 5mg/kg, day 4
  Deaths on day after start of treatment: 0
ICR mice [11]; male, single iv 5mg/kg, day 5
  Deaths on day after start of treatment: 0
ICR mice [11]; male, single iv 5mg/kg, day 6
  Deaths on day after start of treatment: 0
ICR mice [11]; male, single iv 5mg/kg, day 7
  Deaths on day after start of treatment: 0
